According to paper PMC3914206:

Tests used:
[1] = molecular target: T1, panel of 442 kinases (Homo sapiens, UniProt O00329); format: binding; conditions: Compound Concentration 10 µM
T1 construct: purchased KINOMEscan
T1 sequence (O00329 1-1044): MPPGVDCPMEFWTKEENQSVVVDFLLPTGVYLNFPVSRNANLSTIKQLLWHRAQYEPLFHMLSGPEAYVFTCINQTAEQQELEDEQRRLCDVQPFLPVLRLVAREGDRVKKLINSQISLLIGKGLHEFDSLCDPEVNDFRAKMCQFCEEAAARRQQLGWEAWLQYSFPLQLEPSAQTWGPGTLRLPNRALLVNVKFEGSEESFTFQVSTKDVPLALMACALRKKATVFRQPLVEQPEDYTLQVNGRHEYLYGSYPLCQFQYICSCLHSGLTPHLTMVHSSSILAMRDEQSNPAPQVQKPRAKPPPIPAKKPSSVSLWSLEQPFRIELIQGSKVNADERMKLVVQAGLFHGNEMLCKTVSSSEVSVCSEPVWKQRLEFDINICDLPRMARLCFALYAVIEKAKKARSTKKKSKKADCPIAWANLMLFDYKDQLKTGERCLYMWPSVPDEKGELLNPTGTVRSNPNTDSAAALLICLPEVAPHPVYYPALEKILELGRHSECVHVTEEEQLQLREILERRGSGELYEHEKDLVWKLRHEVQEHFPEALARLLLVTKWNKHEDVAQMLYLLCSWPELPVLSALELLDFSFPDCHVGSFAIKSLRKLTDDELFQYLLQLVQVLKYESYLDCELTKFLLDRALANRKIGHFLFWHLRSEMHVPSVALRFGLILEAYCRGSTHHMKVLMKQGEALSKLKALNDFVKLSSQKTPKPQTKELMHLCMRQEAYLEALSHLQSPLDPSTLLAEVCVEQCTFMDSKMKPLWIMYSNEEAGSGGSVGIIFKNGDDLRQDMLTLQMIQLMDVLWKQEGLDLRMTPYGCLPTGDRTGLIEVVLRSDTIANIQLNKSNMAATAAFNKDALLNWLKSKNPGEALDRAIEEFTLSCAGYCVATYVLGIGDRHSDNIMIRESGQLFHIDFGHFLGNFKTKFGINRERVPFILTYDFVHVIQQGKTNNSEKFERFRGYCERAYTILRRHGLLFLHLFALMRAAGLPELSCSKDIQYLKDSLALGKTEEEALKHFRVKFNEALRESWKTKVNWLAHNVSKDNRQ
Source text: (§1) We assessed the selectivity of members of this scaffold using the KINOMEscan methodology across a near comprehensive panel of 442 kinases [[18,27]].

[2] = molecular target: T2, panel of 442 kinases (Homo sapiens, UniProt Q9Y2H1); format: binding; conditions: Compound Concentration 10 µM
T2 construct: purchased KINOMEscan
T2 sequence (Q9Y2H1 whole entry): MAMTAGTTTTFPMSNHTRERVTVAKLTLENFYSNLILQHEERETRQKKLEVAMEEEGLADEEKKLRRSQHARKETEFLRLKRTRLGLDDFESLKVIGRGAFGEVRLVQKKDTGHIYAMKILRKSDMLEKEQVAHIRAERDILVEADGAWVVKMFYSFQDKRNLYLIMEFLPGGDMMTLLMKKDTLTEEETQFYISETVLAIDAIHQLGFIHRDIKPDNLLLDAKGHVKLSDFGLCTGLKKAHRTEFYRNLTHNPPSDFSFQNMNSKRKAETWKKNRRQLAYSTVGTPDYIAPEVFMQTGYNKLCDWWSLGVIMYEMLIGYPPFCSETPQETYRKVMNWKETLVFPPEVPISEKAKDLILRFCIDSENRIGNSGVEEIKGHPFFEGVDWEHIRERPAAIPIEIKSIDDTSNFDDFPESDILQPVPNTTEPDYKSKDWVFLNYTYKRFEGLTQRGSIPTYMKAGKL
Source text: as §1

Compound: CCOc1cc(C(=O)N2CCC(N3CCN(C)CC3)CC2)ccc1Nc1ncc2c(n1)N(C1CCCC1)c1ccccc1C(=O)N2C [Compound 26]
- KINOMEscan: PIK3CD [1]: 91
- KINOMEscan: NDR2 [2]: 100

Compound: COc1cc(C(=O)N2CCC(N3CCN(C)CC3)CC2)ccc1Nc1ncc2c(n1)N(C1CCCC1)c1ccccc1C(=O)N2C [Compound 25, 11-cyclopentyl-2-((2-methoxy-4-(4-(4-methylpiperazin-1-yl)piperidine-1-carbonyl)phenyl)amino)-5-methyl-5H-benzo[e]pyrimido[5,4-b][1,4]diazepin-6(11H)-one]
- KINOMEscan: PIK3CD [1]: 100
- KINOMEscan: NDR2 [2]: 100

Compound: COc1cc(C(=O)N2CCC(N3CCN(C)CC3)CC2)ccc1Nc1ncc2c(n1)N(C)c1ccccc1C(=O)N2C [15 (LRRK2-IN-1)]
- KINOMEscan: PIK3CD [1]: 62
- KINOMEscan: NDR2 [2]: 100
